# Patent publication US9487762B1, “Method and system for producing triterpenes” (University of Kentucky Research Foundation, priority 2012, dated 2016)
# How the values were obtained:
# [1] = tested on: six B. braunii SMT-like genes (TMT-1, -2, -3, SMT-1, -2, -3); assay: In vitro methyltransferase assay with sterol acceptor substrates; format: biochemical, Botryococcus braunii race B; details: 2 mM acceptor substrate, yeast microsomes, data not shown
# Experimental: (§1) The various B. braunii SMT-like genes or empty vector control were expressed in TN-7 yeast and grown in 100 ml selection media for 3 days, after which microsomes were prepared according to the methods of Pompon et al. (27). Enzyme assays contained 50 mM HEPES, pH 7.5, either 0.01% (TMT-3) or 0.1% (all other samples) DHPC, 2 mM acceptor substrate (botryococcene, squalene, C32-botryococcene, C32-squalene, cycloartenol, zymosterol, or lanosterol), 50 μM 3H-SAM (˜150 dpm/pmole), 2 μl microsomes, in 100 μl total volume. Assays were set up by first combining everything except 3H-SAM and microsomes and treating with a sonicating water bath (Branson 2510) for ˜1 min. until the solution became cloudy due to micelle formation, after which 3H-SAM and microsomes were added and the reaction incubated at 37° C. for 5 min. Reactions were stopped by adding an equal volume of 10% (w/v) KOH in methanol, followed by extraction of hydrocarbon products with 400 μl n-hexane. An aliquot of the organic phase was spotted on silica TLC plates and developed with n-hexane:MTBE (25:1). Triterpenes were visualized with iodine vapor and the corresponding zones were scraped and subject to scintillation analysis.
# None of the six enzymes was able to methylate C32 botryococcene or C32 squalene, possible intermediates to the tetramethylated forms (see below).
# TMT-2 [2] = target: T1, TMT-2 (Botryococcus braunii, UniProt H2E7T6); assay: In vitro methyltransferase assay, yeast microsomes, 3H-SAM; format: biochemical, Botryococcus braunii race B; design: led to the identification of six full-length ORFs; made in house; host or cells: Saccharomyces cerevisiae TN7 (TN-7), microsomal preparation; details: TMT-2 microsomes; 2 mM acceptor substrate, 50 μM 3H-SAM, 0.1% DHPC, 37° C., 5 min; mean ± S.E.M., n = 3
# T1 sequence (H2E7T6 1-378): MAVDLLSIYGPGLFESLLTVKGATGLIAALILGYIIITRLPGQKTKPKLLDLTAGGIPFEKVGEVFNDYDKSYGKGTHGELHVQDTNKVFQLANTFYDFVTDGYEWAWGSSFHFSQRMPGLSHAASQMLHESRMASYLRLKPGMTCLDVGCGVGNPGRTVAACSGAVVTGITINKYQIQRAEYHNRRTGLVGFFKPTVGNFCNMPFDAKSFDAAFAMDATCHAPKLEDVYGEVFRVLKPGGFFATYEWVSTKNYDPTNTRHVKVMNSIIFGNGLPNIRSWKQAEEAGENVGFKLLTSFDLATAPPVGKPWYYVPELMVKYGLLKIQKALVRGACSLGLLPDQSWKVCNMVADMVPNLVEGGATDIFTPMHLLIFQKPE
# Experimental: as §1, with “analysis. […]” for “analysis.”
# TMT-1 [3] = target: T2, TMT-1 (Botryococcus braunii, UniProt H2E7T5); assay: as above; format: biochemical, Botryococcus braunii race B; design: led to the identification of six full-length ORFs; made in house; host or cells: Saccharomyces cerevisiae TN7 (TN-7), microsomal preparation; details: TMT-1 microsomes; 2 mM acceptor substrate, 50 μM 3H-SAM, 0.1% DHPC, 37° C., 5 min; mean ± S.E.M., n = 3
# T2 sequence (H2E7T5 1-378): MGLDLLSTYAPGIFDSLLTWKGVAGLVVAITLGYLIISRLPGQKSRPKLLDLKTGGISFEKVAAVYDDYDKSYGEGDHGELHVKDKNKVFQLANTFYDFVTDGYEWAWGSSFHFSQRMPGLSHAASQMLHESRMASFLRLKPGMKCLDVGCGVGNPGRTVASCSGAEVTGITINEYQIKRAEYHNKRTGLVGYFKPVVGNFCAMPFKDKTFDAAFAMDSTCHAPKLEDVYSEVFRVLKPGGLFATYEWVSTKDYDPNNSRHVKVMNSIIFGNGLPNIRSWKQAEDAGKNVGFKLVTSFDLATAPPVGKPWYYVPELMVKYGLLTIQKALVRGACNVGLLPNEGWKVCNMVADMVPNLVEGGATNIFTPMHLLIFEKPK
# Experimental: as §1, with “analysis. […]” for “analysis.”
# TMT-3 [4] = target: T3, TMT-3 (Botryococcus braunii, UniProt H2E7T7); assay: In vivo co-expression in TN7 yeast with triterpene synthase, GC-MS of organic extracts; format: cell-based, Botryococcus braunii race B; details: TN7 yeast co-expressing TMT-3 and BSS
# T3 construct: led to the identification of six full-length ORFs; expressed in transfected cells; host or cells: Saccharomyces cerevisiae TN7 (erg9 insertional mutant) co-expressing B. braunii squalene synthase (BSS) or SSL-1-3m
# T3 sequence (H2E7T7 1-379): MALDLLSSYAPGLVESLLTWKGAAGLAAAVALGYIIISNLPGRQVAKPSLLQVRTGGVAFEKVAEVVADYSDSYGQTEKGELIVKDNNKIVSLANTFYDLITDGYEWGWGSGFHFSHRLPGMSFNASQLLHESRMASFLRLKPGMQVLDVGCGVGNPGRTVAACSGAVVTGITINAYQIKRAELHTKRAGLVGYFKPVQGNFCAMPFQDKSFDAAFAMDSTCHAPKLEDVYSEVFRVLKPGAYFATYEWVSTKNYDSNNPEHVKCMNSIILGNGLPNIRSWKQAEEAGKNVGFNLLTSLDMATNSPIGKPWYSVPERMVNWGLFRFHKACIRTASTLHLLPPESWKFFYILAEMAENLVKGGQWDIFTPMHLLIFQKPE
# Description: (§2) Yeast lines previously developed for high level accumulation of squalene and botryococcene were used for evaluating the putative triterpene methyltransferase genes (17,23,24). These lines consist of the TN7 parental strain harboring an insertional mutation in the native yeast squalene synthase gene (ERG9) transformed with expression vectors containing either the full-length Botryococcus squalene synthase (BSS) gene (18) or a fusion of the Botryococcus SSL-1 and SSL-3 genes (functional equivalent of botryococcene synthase) including a sequence encoding for the carboxy-terminal membrane targeting domain of the Botryococcus squalene synthase protein (SSL-1-3m) (17). The various methyltransferase expression vectors were introduced into these two yeast lines using the lithium acetate transformation protocol, followed by selection for complementation of the uracil and leucine auxotrophic growth markers (24). […]
# (§3) In brief, 1 ml aliquots of the culture were combined with 1 ml of acetone, mixed vigorously, and incubated at room temperature for 10 min. […] The mixture was then centrifuged briefly at 500 g to separate the phases, and an aliquot of the organic phase (1-3 μl) analyzed by GC-MS with a Varian CP-3800 GC coupled to a Varian Saturn 2200 MS/MS (Varian Medical Systems) using a Supelco SLB-5 ms fused silica capillary column (30 m×0.25 mm×0.25 μm film thickness, Supelco). […]
# TMT-2 [5] = target: T1, TMT-2; assay: as above; format: cell-based, Botryococcus braunii race B; design: led to the identification of six full-length ORFs; made in house; host or cells: Saccharomyces cerevisiae TN7 (TN-7); details: TN7 yeast co-expressing TMT-2 and BSS
# Description: as §2, §3
# TMT-1 [6] = target: T2, TMT-1; assay: as above; format: cell-based, Botryococcus braunii race B; design: led to the identification of six full-length ORFs; made in house; host or cells: Saccharomyces cerevisiae TN7 (TN-7); details: TN7 yeast co-expressing TMT-1 and BSS
# Description: as §2, §3
# SMT-3 = target: T4, SMT-3 (Botryococcus braunii, UniProt H2E7U0); assay: In vitro methyltransferase assay, yeast microsomes, 3H-SAM; format: biochemical, Botryococcus braunii race B; details: SMT-3 microsomes; 2 mM acceptor substrate, 50 μM 3H-SAM, 0.1% DHPC, 37° C., 5 min
# T4 construct: led to the identification of six full-length ORFs; made in house; host or cells: Saccharomyces cerevisiae TN7 (TN-7), microsomal preparation
# T4 sequence (H2E7U0 1-392): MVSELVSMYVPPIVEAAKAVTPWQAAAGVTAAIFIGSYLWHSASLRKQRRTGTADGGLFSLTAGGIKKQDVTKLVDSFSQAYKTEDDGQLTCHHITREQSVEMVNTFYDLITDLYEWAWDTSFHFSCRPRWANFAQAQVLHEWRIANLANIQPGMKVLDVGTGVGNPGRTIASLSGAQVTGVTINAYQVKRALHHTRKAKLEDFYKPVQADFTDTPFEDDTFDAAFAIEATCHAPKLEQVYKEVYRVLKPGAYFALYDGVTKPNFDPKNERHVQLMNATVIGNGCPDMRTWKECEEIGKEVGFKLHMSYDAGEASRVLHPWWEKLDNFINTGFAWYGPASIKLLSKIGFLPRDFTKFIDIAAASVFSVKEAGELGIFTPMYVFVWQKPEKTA
# Experimental: as §1
# (§4) To verify the in vivo results with in vitro determinations, the six SMT-like genes were expressed in yeast and microsomal preparations used as the source of the enzymes in assays containing 3H-SAM and either botryococcene or squalene as substrates.
# SMT-2 = target: T5, SMT-2 (Botryococcus braunii, UniProt H2E7T9); assay: as above; format: biochemical, Botryococcus braunii race B; details: SMT-2 microsomes; 2 mM acceptor substrate, 50 μM 3H-SAM, 0.1% DHPC, 37° C., 5 min
# T5 construct: led to the identification of six full-length ORFs; made in house; host or cells: Saccharomyces cerevisiae TN7 (TN-7), microsomal preparation
# T5 sequence (H2E7T9 1-389): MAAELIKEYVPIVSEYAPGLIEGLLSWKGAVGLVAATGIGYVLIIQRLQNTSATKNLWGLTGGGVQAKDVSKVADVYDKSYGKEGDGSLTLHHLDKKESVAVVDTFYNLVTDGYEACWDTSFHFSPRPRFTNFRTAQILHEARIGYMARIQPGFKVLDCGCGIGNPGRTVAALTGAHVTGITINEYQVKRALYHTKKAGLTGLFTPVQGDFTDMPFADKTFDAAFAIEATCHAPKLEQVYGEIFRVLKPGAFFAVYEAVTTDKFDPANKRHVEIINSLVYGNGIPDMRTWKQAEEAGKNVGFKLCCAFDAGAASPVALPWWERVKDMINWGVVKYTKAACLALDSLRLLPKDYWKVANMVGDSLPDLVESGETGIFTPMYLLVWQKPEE
# Experimental: as §1, §4
# SMT-1 = target: T6, SMT-1 (Botryococcus braunii, UniProt H2E7T8); assay: as above; format: biochemical, Botryococcus braunii race B; details: SMT-1 microsomes; 2 mM acceptor substrate, 50 μM 3H-SAM, 0.1% DHPC, 37° C., 5 min
# T6 construct: led to the identification of six full-length ORFs; made in house; host or cells: Saccharomyces cerevisiae TN7 (TN-7), microsomal preparation
# T6 sequence (H2E7T8 1-389): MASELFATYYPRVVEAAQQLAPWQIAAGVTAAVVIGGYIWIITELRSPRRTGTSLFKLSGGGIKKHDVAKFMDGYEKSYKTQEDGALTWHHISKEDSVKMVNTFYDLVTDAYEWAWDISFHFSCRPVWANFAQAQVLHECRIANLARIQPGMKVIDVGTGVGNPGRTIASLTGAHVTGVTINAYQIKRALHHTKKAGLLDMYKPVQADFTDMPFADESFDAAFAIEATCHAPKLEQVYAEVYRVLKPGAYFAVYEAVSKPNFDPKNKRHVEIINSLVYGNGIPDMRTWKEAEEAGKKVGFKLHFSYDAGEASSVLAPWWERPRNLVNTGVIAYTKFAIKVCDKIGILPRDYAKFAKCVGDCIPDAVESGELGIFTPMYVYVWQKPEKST
# Experimental: as §1, §4
# TMT-3 [7] = target: T3, TMT-3; assay: as above; format: biochemical, Botryococcus braunii race B; details: TMT-3 microsomes; 2 mM acceptor substrate, 50 μM 3H-SAM, 0.01% DHPC, 37° C., 5 min; mean ± S.E.M., n = 3
# Experimental: as §1, §4
smiles,measurement,setting,value
CC(C)=CCC[C@@H](C)[C@H]1CC[C@@]2(C)[C@@H]3CC[C@H]4C(C)(C)[C@@H](O)CC[C@@]45C[C@@]35CC[C@]12C [cycloartenol],Methylation of the sterol acceptor substrate,[1],none of the six B. braunii SMT-like genes methylated
CC(C)=CCC[C@@H](C)[C@H]1CC[C@@]2(C)C3=C(CC[C@]12C)[C@@]1(C)CC[C@H](O)C(C)(C)[C@@H]1CC3 [lanosterol],Methylation of the sterol acceptor substrate,[1],none of the six B. braunii SMT-like genes methylated
CC(C)=CCC/C(C)=C/CC/C(C)=C/CC/C=C(\C)CC/C=C(\C)CCC=C(C)C [squalene],Enzyme activity (methyl groups transferred to acceptor substrate),TMT-2 [2],862.2 ± 59.9 pmol/h/µg
same,Enzyme activity (methyl groups transferred to acceptor substrate),TMT-1 [3],513.7 ± 8.6 pmol/h/µg
same,Share of total accumulating squalene converted to its methyl-derivatives,TMT-3 [4],approximately 18%
same,Share of squalenes accumulated as methyl-derivatives,TMT-2 [5],40%
same,Share of total squalenes accumulated as methyl-derivatives,TMT-1 [6],63%
same,Enzyme activity (methyl groups transferred to acceptor substrate),SMT-3,0 pmol/h/µg
same,Enzyme activity (methyl groups transferred to acceptor substrate),SMT-2,0 pmol/h/µg
same,Enzyme activity (methyl groups transferred to acceptor substrate),SMT-1,0 pmol/h/µg
same,Enzyme activity (methyl groups transferred to acceptor substrate),TMT-3 [7],35.4 ± 3.0 pmol/h/µg
CC(C)=CCC[C@@H](C)[C@H]1CC[C@H]2C3=C(CC[C@]12C)[C@@]1(C)CC[C@H](O)C[C@@H]1CC3 [zymosterol],Methylation of the sterol acceptor substrate,[1],none of the six B. braunii SMT-like genes methylated
